Test results: paper PMC6009868, “Synthesis and bioactivity of several new hetaryl sulfonamides” (Journal of Enzyme Inhibition and Medicinal Chemistry, 2017)

Test: Metal chelating activity (Fe2+-ferrozine, 562 nm)
Settings: absorbance at 562 nm
Method: Metal chelating capacity of hetaryl sulfonamides 1–12 was determined according to Dinis et al.[60]. […] Simultaneously, to a mixture of FeCl2 (0.1 mL, 0.6 mM), three concentrations (10–30 µg/mL) of hetaryl sulfonamides 1–12 in ethanol (0.4 mL) were added. The activities were initiated by the addition of ferrozine molecules (0.1 mL, 5 mM). Additionally, the reaction was mixed and maintained in a dark room for 10 min.

In order of falling “Fe^2+ chelating (IC50)” value:
1. Cc1cc(C(C)(C)C)c(O)c(C(C)(C)C)c1 [BHT]  76.96 µg/mL
2. COc1ccc(O)c(C(C)(C)C)c1 [BHA]  46.20 µg/mL
3. Cc1c(C)c2c(c(C)c1O)CC[C@@](C)(CCC[C@H](C)CCC[C@H](C)CCCC(C)C)O2 [α-Tocopherol]  40.76 µg/mL
4. Cc1c(C)c2c(c(C)c1O)CCC(C)(C(=O)O)O2 (centres unmarked) [Trolox]  31.13 µg/mL
5. O=C(O)CN(CCN(CC(=O)O)CC(=O)O)CC(=O)O [EDTA]  9.36 µg/mL
